# According to the Deep4Chem optical property database:
# Assay: photoluminescence quantum yield (fraction); solvent given as SMILES
# [1] = in c1cc(-c2cccc(-n3c4ccccc4c4ccccc43)c2)cc(-n2c3ccccc3c3ccccc32)c1
structure (smiles),measurement,setting,value
COC(=O)C(Cc1ccc2oc(-c3ccc(N(c4ccccc4)c4ccccc4)cc3)nc2c1)NC(=O)OC(C)(C)C (centres undefined),photoluminescence quantum yield,in C1CCCCC1,0.87
same,photoluminescence quantum yield,in C1CCOC1,0.77
same,photoluminescence quantum yield,in C1COCCO1,0.47
same,photoluminescence quantum yield,in CC1CCCCC1,0.94
same,photoluminescence quantum yield,in CC1COC(=O)O1,0.67
same,photoluminescence quantum yield,in CC#N,0.62
same,photoluminescence quantum yield,in CC(C)=O,0.68
same,photoluminescence quantum yield,in CC(C)O,0.77
same,photoluminescence quantum yield,in CC(O)CO,0.63
same,photoluminescence quantum yield,in CCCCCC,0.98
same,photoluminescence quantum yield,in CCCCCCCC,0.99
same,photoluminescence quantum yield,in CCCCCO,0.76
same,photoluminescence quantum yield,in CCCCO,0.87
same,photoluminescence quantum yield,in CCO,0.61
same,photoluminescence quantum yield,in CCOC(C)=O,0.8
same,photoluminescence quantum yield,in CN(C)C=O,0.72
same,photoluminescence quantum yield,in CO,0.42
same,photoluminescence quantum yield,in COCCOC,0.44
same,photoluminescence quantum yield,in CS(C)=O,0.69
same,photoluminescence quantum yield,in ClC(Cl)Cl,0.88
same,photoluminescence quantum yield,in ClCCl,0.87
same,photoluminescence quantum yield,in N#Cc1ccccc1,0.26
same,photoluminescence quantum yield,in NC=O,0.35
same,photoluminescence quantum yield,in O,0.003
same,photoluminescence quantum yield,in OCC(F)(F)F,0.05
CN(C)c1ccc(C2=C3C=C(c4ccc(C#N)cc4)S[C@]34c3ccccc3[C@H]2c2ccccc24)cc1,photoluminescence quantum yield,in ClCCl,0.76
CCOC(=O)C1=C(N)n2c(=O)c3ccccc3c(=O)n2C1c1ccc(C)cc1 (centres undefined),photoluminescence quantum yield,in CS(C)=O,0.063
CCCCN(CCCC)c1ccc(C#Cc2cc(C#Cc3ccc(N(CCCC)CCCC)cc3)c(C#Cc3cc(C(F)(F)F)cc(C(F)(F)F)c3)cc2C#Cc2cc(C(F)(F)F)cc(C(F)(F)F)c2)cc1,photoluminescence quantum yield,in ClCCl,0.34
O=C1NC(=O)c2ccc3c4ccc5c6c(ccc(c7ccc1c2c73)c64)C(=O)N(c1ccc(O)cc1)C5=O,photoluminescence quantum yield,in CN(C)C=O,0.15
COc1ccc(N(c2ccc(/C=C(\C)c3ccccc3)cc2)c2ccc(/C=C(\C)c3ccccc3)cc2)cc1,photoluminescence quantum yield,in Cc1ccccc1,0.48
C(=C\c1ccc(N(c2ccccc2)c2ccccc2)cc1)/c1ccc(-c2cc(-c3ccccn3)nc(-c3ccccn3)c2)cc1,photoluminescence quantum yield,in C1CCOC1,0.55
same,photoluminescence quantum yield,in C1COCCO1,0.46
same,photoluminescence quantum yield,in CC#N,0.53
same,photoluminescence quantum yield,in CCO,0.54
same,photoluminescence quantum yield,in ClCCl,0.55
CN(C)c1ccc2nc(-c3ccc(C=C(C#N)C#N)cc3)sc2c1,photoluminescence quantum yield,in C1CCCCC1,0.85
same,photoluminescence quantum yield,in CC#N,0
same,photoluminescence quantum yield,in CO,0
same,photoluminescence quantum yield,in ClC(Cl)Cl,0.64
CC1(C)c2ccccc2N(c2ccc(-c3nc(C#N)c(C#N)nc3-c3ccc(N4c5ccccc5C(C)(C)c5ccccc54)cc3)cc2)c2ccccc21,photoluminescence quantum yield,in Cc1ccccc1,0.2
same,photoluminescence quantum yield,[1],0.67
CN(C)c1ccc(C(=O)Nc2ccccc2)cc1,photoluminescence quantum yield,in C1CCCCC1,0.0011
same,photoluminescence quantum yield,in C1CCOC1,0.0061
same,photoluminescence quantum yield,in CC#N,0.0107
same,photoluminescence quantum yield,in CCOCC,0.0036
CC1(C)c2ccccc2N(c2ccc3nc4c5ccc(N6c7ccccc7C(C)(C)c7ccccc76)cc5c5cc(N6c7ccccc7C(C)(C)c7ccccc76)ccc5c4nc3c2)c2ccccc21,photoluminescence quantum yield,[1],0.89
CCCCOC(=O)c1cc(Oc2ccc(C(C)(C)C)cc2)c2c3c(Cl)cc4c5c(cc(Cl)c(c6c(Oc7ccc(C(C)(C)C)cc7)cc(C(=O)OCCCC)c1c26)c53)C(=O)N(c1c(C(C)C)cccc1C(C)C)C4=O,photoluminescence quantum yield,in Cc1ccccc1,0.79
Oc1ccc2ccccc2c1/C=N/CC/N=C/c1c(O)ccc2ccccc12,photoluminescence quantum yield,in CC#N,0.12
Cc1ccc(C2C(C#N)=C(N)n3c(=O)c4ccccc4c(=O)n32)cc1 (centres undefined),photoluminescence quantum yield,in CS(C)=O,0.045
COc1ccccc1-c1cc2c(o1)=CC1=Cc3cc4oc(-c5ccccc5OC)cc4n3[B-](F)(F)[N+]=21,photoluminescence quantum yield,in ClC(Cl)Cl,0.91
CCOC(=O)c1sc(SC)c2c(=O)n(C)nnc12,photoluminescence quantum yield,in C1CCOC1,0.016
same,photoluminescence quantum yield,in CC#N,0.029
same,photoluminescence quantum yield,in CCO,0.054
same,photoluminescence quantum yield,in CN(C)C=O,0.013
same,photoluminescence quantum yield,in CO,0.052
same,photoluminescence quantum yield,in CS(C)=O,0.0077
Cc1cccn2c1cc1c3ccccc3nc(-c3ccco3)c12,photoluminescence quantum yield,in CS(C)=O,0.42
CCCCN(CCCC)c1ccc(C#Cc2cc(C#Cc3ccc(C#N)cc3)c(C#Cc3ccc(N(CCCC)CCCC)cc3)cc2C#Cc2ccc(C#N)cc2)cc1,photoluminescence quantum yield,in ClCCl,0.25
CC/[NH+]=c1\cc2oc3cc(NCCC(=O)NC(C(=O)OC)C(C)C)c4ccccc4c3nc-2cc1C (centres undefined),photoluminescence quantum yield,in CCO,0.4
same,photoluminescence quantum yield,in O,0.26
Cc1nc(-c2cc(F)ccc2O)n2c1CCCC2,photoluminescence quantum yield,in ClCCl,0.72
COC(=O)C(NC(=O)OC(C)(C)C)c1ccc2oc(-c3ccc(F)cc3)nc2c1 (centres undefined),photoluminescence quantum yield,in CC1CCCCC1,0.49
same,photoluminescence quantum yield,in CC#N,0.46
same,photoluminescence quantum yield,in CO,0.48
CCCCCn1c2cc(/C=C/c3ccc(N(c4ccccc4)c4ccccc4)cc3)ccc2c2ccc(/C=C/c3ccc(N(c4ccccc4)c4ccccc4)cc3)cc21,photoluminescence quantum yield,in Cc1ccccc1,0.81
Cc1ccc(C2=Cc3ccc4ccccc4[n+]3[B-](F)(F)O2)cc1,photoluminescence quantum yield,in ClC(Cl)Cl,0.75
NS(=O)(=O)c1ccc(N2N=C(c3ccc(O)cc3)CC2c2ccc(F)cc2)cc1 (centres undefined),photoluminescence quantum yield,in C1CCOC1,0.88
same,photoluminescence quantum yield,in C1COCCO1,0.78
same,photoluminescence quantum yield,in CC#N,0.75
same,photoluminescence quantum yield,in CC(C)O,0.52
same,photoluminescence quantum yield,in CCO,0.47
same,photoluminescence quantum yield,in CCOC(C)=O,0.87
same,photoluminescence quantum yield,in CN(C)C=O,0.89
same,photoluminescence quantum yield,in CO,0.36
same,photoluminescence quantum yield,in CS(C)=O,0.93
same,photoluminescence quantum yield,in O,0.57
COCCOCCOCCOCC(COCCOCCOCCOC)Oc1cc(/C=C/c2ccc(/C=C(\C#N)c3ccccn3)cc2)c(OC(COCCOCCOCCOC)COCCOCCOCCOC)cc1/C=C/c1ccc(/C=C(\C#N)c2ccccn2)cc1,photoluminescence quantum yield,in ClCCl,0.64
C(/C=C/Nc1cccc2ccccc12)=[NH+]c1cccc2ccccc12,photoluminescence quantum yield,in CS(C)=O,0.01
F[B-]1(F)n2cccc2C(c2ccc(-c3c4ccccc4c(-c4ccccc4)c4ccccc34)cc2)=C2C=CC=[N+]21,photoluminescence quantum yield,in CC#N,0.001
same,photoluminescence quantum yield,in CCCCCC,0.014
same,photoluminescence quantum yield,in CCO,0.003
same,photoluminescence quantum yield,in CN(C)C=O,0.002
same,photoluminescence quantum yield,in Cc1ccccc1,0.036
same,photoluminescence quantum yield,in ClCCl,0.002
c1ccc(-n2c3ccccc3c3c2c2ccccc2n3-c2ccccc2)cc1,photoluminescence quantum yield,in Cc1ccccc1,0.404
COc1ccc(N2c3sc4ccccc4c3Sc3c2sc2ccccc32)cc1,photoluminescence quantum yield,in ClCCl,0.23
CCn1c2ccc(-c3cccs3)cc2c2cc(-c3cccs3)ccc21,photoluminescence quantum yield,in ClCCl,0.047
CCCCN(CCCC)c1ccc(C#Cc2cc(C#Cc3cc(C(F)(F)F)cc(C(F)(F)F)c3)c(C#Cc3ccc(N(CCCC)CCCC)cc3)cc2C#Cc2cc(C(F)(F)F)cc(C(F)(F)F)c2)cc1,photoluminescence quantum yield,in ClCCl,0.25
Cc1ccc(-n2c(-c3cccc4cc[n-]c34)[nH+]c3c4ccccc4c4ccccc4c32)cc1,photoluminescence quantum yield,in Cc1ccccc1,0.015
COc1cc(OC)cc(-c2ccc(-c3ccc(C#N)s3)s2)c1,photoluminescence quantum yield,in C1CCCCC1,0.09
same,photoluminescence quantum yield,in C1COCCO1,0.09
same,photoluminescence quantum yield,in CC#N,0.11
same,photoluminescence quantum yield,in CC(C)O,0.1
same,photoluminescence quantum yield,in CCCCO,0.1
same,photoluminescence quantum yield,in CCO,0.1
same,photoluminescence quantum yield,in CCOC(C)=O,0.09
same,photoluminescence quantum yield,in CN(C)C=O,0.12
same,photoluminescence quantum yield,in CO,0.1
same,photoluminescence quantum yield,in CS(C)=O,0.16
same,photoluminescence quantum yield,in Cc1ccccc1,0.09
same,photoluminescence quantum yield,in ClC(Cl)Cl,0.1
same,photoluminescence quantum yield,in ClCCl,0.09
same,photoluminescence quantum yield,in O,0.02
COc1ccc(N(c2ccc(OC)cc2)c2ccc(-c3ccc4c(c3)C(=O)c3ccccc3C4=O)cc2)cc1,photoluminescence quantum yield,in C1CCOC1,0
same,photoluminescence quantum yield,in CCCCCC,0.265
same,photoluminescence quantum yield,in CCOC(C)=O,0
same,photoluminescence quantum yield,in Cc1ccccc1,0.0045
same,photoluminescence quantum yield,in ClC(Cl)(Cl)Cl,0.0538
same,photoluminescence quantum yield,in ClCCl,0
F[B-]1(F)Oc2ccccc2-c2cc(-n3c4ccc(-c5ccccc5)cc4c4cc(-c5ccccc5)ccc43)cc[n+]21,photoluminescence quantum yield,in O=P(c1ccccc1)(c1ccccc1)c1ccccc1Oc1ccccc1P(=O)(c1ccccc1)c1ccccc1,0.7
CCCCCCCCCCCCOc1ccc(C#Cc2ccc(C#Cc3ccc(OCCCCCCCCCCCC)c(OCCCCCCCCCCCC)c3)c3nc4c5ccccc5c5ccccc5c4nc23)cc1OCCCCCCCCCCCC,photoluminescence quantum yield,in C1CCOC1,0.23
same,photoluminescence quantum yield,in Cc1ccccc1,0.19
same,photoluminescence quantum yield,in ClCCl,0.26
Cc1cc(=O)oc2c3c4c(cc12)CCCN4CCC3,photoluminescence quantum yield,in CCC#N,0.9
same,photoluminescence quantum yield,in CCCCl,0.8
same,photoluminescence quantum yield,in CCO,0.8
same,photoluminescence quantum yield,in OC(C(F)(F)F)C(F)(F)F,0.86
same,photoluminescence quantum yield,in OCC(F)(F)F,0.84
CCCCCCN(CCCCCC)c1ccc(C#Cc2ccc([N+](=O)[O-])cc2)cc1,photoluminescence quantum yield,in CO,0.0016
same,photoluminescence quantum yield,in ClCCl,0.0015
[C-]#[N+]c1ccc(-c2ccc(N(C)C)cc2)cc1,photoluminescence quantum yield,in C1CCCCC1,0.82
same,photoluminescence quantum yield,in C1CCOC1,0.85
same,photoluminescence quantum yield,in C1COCCO1,0.74
same,photoluminescence quantum yield,in CC#N,0.89
same,photoluminescence quantum yield,in CC(C)=O,0.54
same,photoluminescence quantum yield,in CCCCCC,0.66
same,photoluminescence quantum yield,in CCOC(C)=O,0.54
same,photoluminescence quantum yield,in CN(C)C=O,0.86
same,photoluminescence quantum yield,in CO,0.15
same,photoluminescence quantum yield,in CS(C)=O,0.76
same,photoluminescence quantum yield,in Cc1ccccc1,0.62
same,photoluminescence quantum yield,in ClC(Cl)Cl,0.19
same,photoluminescence quantum yield,in ClCCl,0.8
same,photoluminescence quantum yield,in O,0.016
same,photoluminescence quantum yield,in c1ccncc1,0.63
CCC1(CC)c2cc(/C=C/c3cc(C#N)c(/C=C/c4ccc5c(c4)C(CC)(CC)c4cc(N6c7ccccc7Sc7ccccc76)ccc4-5)cc3C#N)ccc2-c2ccc(N3c4ccccc4Sc4ccccc43)cc21,photoluminescence quantum yield,in C1CCOC1,0.01
same,photoluminescence quantum yield,in CCCCCC,0.11
same,photoluminescence quantum yield,in Cc1ccccc1,0.06
same,photoluminescence quantum yield,in ClCCl,0.01
CCN(CC)c1ccc2c(c1)oc(=O)c1c(=O)oc3cc(Br)ccc3c12,photoluminescence quantum yield,in CS(C)=O,0.25
same,photoluminescence quantum yield,in ClCCl,0.9
CN(C)c1[se]c(-c2ccccc2)nc1-c1ccccc1,photoluminescence quantum yield,in ClC(Cl)Cl,0.029
COc1cc(/C=C/c2nc(N3CCOCC3)c3c([n+]2[O-])CCCC3)cc(OC)c1OC,photoluminescence quantum yield,in ClCCl,0.23
Cc1cc2c3ccccc3sc2c2[nH]c3ccccc3c12,photoluminescence quantum yield,in ClCCl,0.058
